Literature values in patent publication EP4810022A1, “MICROPARTICLES COMPRISING TIRZEPATIDE OR PHARMACEUTICALLY ACCEPTABLE SALT THEREOF, AND MANUFACTURING METHOD THEREFOR” (Inventage Lab Inc., priority 2024, dated 2025).

Key:
[1] = when taken for one year
[2] = reported

SMILES | body weight loss [1] | side effects [2]
CCCCCCCCCCC[C@@H](C[C@@H]1OC(=O)[C@H]1CCCCCC)OC(=O)[C@H](CC(C)C)NC=O [orlistat] | about 4 kg | 
Cc1c(C(=O)NN2CCCCC2)nn(-c2ccc(Cl)cc2Cl)c1-c1ccc(Cl)cc1 [rimonabant] |  | central nervous system side effects
CC(C)CC(N(C)C)C1(c2ccc(Cl)cc2)CCC1 (stereo not drawn) [sibutramine] |  | cardiovascular side effects
